Biological target: GTP-binding protein Rheb (Homo sapiens, UniProt Q15382)
Experiment: In Vitro Kinase Assay: For the Rheb-dependent in vitro kinase assay, HA-GST-Rheb was first loaded with GTP-γ-S (Millipore #20-176) by incubating 600 ng/μL Rheb with 10 mM EDTA and 0.4 mM GTP-γ-S at 30° C. for 10 minutes. MgCl2 was added to a final concentration of 20 mM to stop the reaction. This mixture was used at 20× in the kinase assay.Loaded HA-GST-Rheb was then incubated with compound (final DMSO concentration 1%) for 30 minutes at room temperature. mTORC1, GFP-4E-BP1 substrate (Life Technologies #PV4759), and kinase assay buffer (HEPES pH 7.4, KCl, MgCl2) were added to the Rheb-compound mixture and incubated at room temperature for 20 minutes. ATP was then added, and the kinase reaction proceeded at 30° C. for 45 min before being stopped by the addition of SDS-PAGE loading buffer for Westerns or 10 mM EDTA for the LanthaScreen readout. During the kinase reaction, the final concentration of reagents is as follows: Rheb—30 ng/μL, compound—variable, GTPγS—0.02 mM, EDTA—0.5 mM, MgCl2—1 mM, mTORC1—fixed volume of prep (molarity unknown), GFP-4E-BP1 substrate—15 ng/μL, ATP—0.5 mM. For LanthaScreen analysis (Thermo Fisher #PV4757), the manufacturer's instructions were followed and conditions were optimized for the amount of Rheb and mTORC1. The final concentration of reagents was as follows: 100 nM loaded HA-GST-Rheb, compound (variable), 0.5 mM EDTA, 10 mM MgCl2, 25 mM HEPES pH 7.4, 50 mM KCl, mTORC1 (fixed volume—0.1 μL in 10 μL total volume), 0.4 μM GFP-4E-BP1 substrate, 0.5 mM ATP. Results were read on an EnVision reader (PerkinElmer) using 495ex/520em filters (Life Technologies, #PV00315).

Sequence of GTP-binding protein Rheb (Q15382 whole entry): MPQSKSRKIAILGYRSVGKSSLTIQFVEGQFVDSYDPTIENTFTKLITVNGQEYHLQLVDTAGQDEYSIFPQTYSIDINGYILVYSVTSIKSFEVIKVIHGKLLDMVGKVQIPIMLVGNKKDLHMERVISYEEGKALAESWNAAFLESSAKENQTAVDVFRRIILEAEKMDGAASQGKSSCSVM

SMILES | IC50 [µM]
O=C(O)c1cc2c(Sc3ccc(C(F)(F)F)cc3)cc(Cl)cc2[nH]1 | < 10
CN1CCCN(c2ccc(NC(=O)c3cc4c(-c5cc(Cl)cc(Cl)c5)cc(Cl)cc4[nH]3)cc2F)CC1 | < 10
Cc1cc(C(C)(C)C)ccc1Sc1cc(Cl)cc2[nH]c(CO)cc12 | < 10

Further lines, results first:

IC50 [µM] | SMILES
< 10 | OCc1cc2c(Sc3ccc(Cl)cc3Cl)cc(Cl)cc2[nH]1
< 10 | Cc1cc(C(C)(C)C)ccc1Sc1cc(Cl)cc2[nH]c(C(=O)O)cc12

Reference: ChEMBL document CHEMBL5729117, “Heteroaryl Rheb inhibitors and uses thereof” (2022)
